Measurements taken from US20070004660A1, “Synergistic Modulation of Flt3 Kinase Using Alkylquinolines and Alkylquinazolines” (priority 2005, published 2007).

These molecules were tested against T1, wild-type FLT3 receptor (Homo sapiens, UniProt P36888) (assay: Cell-based FLT3 receptor ELISA (FLT ligand-induced phosphorylation in Baf3 FLT3 cells)). Conditions: 100 ng/mL Flt ligand, uncertainty ±20%.
T1 construct: host or cells: Baf3 (murine B cell lymphoma line), stably transfected
T1 sequence (P36888 27-993): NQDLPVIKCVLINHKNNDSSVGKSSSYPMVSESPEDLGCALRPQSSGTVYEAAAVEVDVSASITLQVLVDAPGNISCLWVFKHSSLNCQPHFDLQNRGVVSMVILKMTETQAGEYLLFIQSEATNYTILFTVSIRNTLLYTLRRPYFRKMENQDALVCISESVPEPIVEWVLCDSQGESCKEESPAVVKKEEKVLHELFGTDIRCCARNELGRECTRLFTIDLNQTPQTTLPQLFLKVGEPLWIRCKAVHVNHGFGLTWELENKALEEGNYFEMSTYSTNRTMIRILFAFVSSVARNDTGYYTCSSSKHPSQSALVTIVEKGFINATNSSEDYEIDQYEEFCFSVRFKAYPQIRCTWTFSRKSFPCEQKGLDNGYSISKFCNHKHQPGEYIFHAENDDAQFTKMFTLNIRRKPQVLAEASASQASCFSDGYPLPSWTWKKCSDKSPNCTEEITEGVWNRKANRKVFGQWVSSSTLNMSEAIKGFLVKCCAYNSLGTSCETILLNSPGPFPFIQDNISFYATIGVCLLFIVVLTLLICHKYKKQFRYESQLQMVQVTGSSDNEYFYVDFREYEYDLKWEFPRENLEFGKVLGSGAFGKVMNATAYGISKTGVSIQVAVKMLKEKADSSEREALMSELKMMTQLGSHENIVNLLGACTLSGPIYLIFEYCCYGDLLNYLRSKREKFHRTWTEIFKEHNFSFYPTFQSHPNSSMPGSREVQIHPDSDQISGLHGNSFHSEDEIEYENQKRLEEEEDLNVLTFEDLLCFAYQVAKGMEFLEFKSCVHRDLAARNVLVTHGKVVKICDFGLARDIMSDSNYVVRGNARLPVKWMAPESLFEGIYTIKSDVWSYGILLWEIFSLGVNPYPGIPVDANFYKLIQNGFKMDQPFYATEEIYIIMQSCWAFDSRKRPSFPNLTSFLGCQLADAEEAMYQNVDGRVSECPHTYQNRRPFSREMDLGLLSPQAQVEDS
Method in brief: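 Receptor phosphotyrosine measured by sandwich ELISA (anti-FLT3 capture, HRP anti-pTyr, luminescence) in FLT3-transfected murine Baf3 cells given 1 h compound pretreatment and 10 min 100 ng/mL FLT ligand after overnight low-serum starvation; triplicates, IC50 from nonlinear regression.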

| IC50 [nM] | Structure (SMILES) |
| --- | --- |
| 22 | O=C1CCCN1CCOc1cc2ncnc(C3CCN(C(=O)Nc4ccc(N5CCCC5)cc4)CC3)c2cc1F [Compound 206, 4-{6-Fluoro-7-[2-(2-oxo-pyrrolidin-1-yl)-ethoxy]-quinazolin-4-yl}-piperidine-1-carboxylic acid (4-pyrrolidin-1-yl-phenyl)-amide] |
| 42 | COc1cc2c(C3CCN(C(=O)Nc4ccc(N5CCOCC5)cc4)CC3)ncnc2cc1OCCCN1CCN(C)CC1 [Compound 207, 4-{6-Methoxy-7-[3-(4-methyl-piperazin-1-yl)-propoxy]-quinazolin-4-yl}-piperidine-1-carboxylic acid (4-morpholin-4-yl-phenyl)-amide] |
| 37 | COc1cc2c(C3CCN(C(=O)Nc4ccc(N5CCCC5)cc4)CC3)ncnc2cc1OCCN1CCCC1=O [Compound 209, 4-{6-Methoxy-7-[2-(2-oxo-pyrrolidin-1-yl)-ethoxy]-quinazolin-4-yl}-piperidine-1-carboxylic acid (4-pyrrolidin-1-yl-phenyl)-amide] |
| 25 | O=C(Nc1ccc(N2CCCC2)cc1)N1CCC(c2ncnc3cc(N4CCOCC4)c(F)cc23)CC1 [Compound 210, 4-(6-Fluoro-7-morpholin-4-yl-quinazolin-4-yl)-piperidine-1-carboxylic acid (4-pyrrolidin-1-yl-phenyl)-amide] |
| 1 | COc1cc2c(C3CCN(C(=O)Nc4ccc(N5CCCC5)cc4)CC3)ncnc2cc1N1CCOCC1 [Compound 211, 4-(6-Methoxy-7-morpholin-4-yl-quinazolin-4-yl)-piperidine-1-carboxylic acid (4-pyrrolidin-1-yl-phenyl)-amide] |
| 93 | COc1cc2c(C3CCN(C(=O)Nc4ccc(N5CCOCC5)cc4)CC3)ncnc2cc1N1CCOCC1 [Compound 212, 4-(6-Methoxy-7-morpholin-4-yl-quinazolin-4-yl)-piperidine-1-carboxylic acid (4-morpholin-4-yl-phenyl)-amide] |
| 890 | COc1cc2ncnc(C3CCN(C(=O)Nc4ccc(I)cc4)CC3)c2cc1OC [Example 2, 4-(6,7-Dimethoxy-quinazolin-4-yl)-piperidine-1-carboxylic acid (4-iodo-phenyl)-amide] |
| 938 | COc1cc2ncnc(C3CCN(C(=O)Nc4ccc(-n5ccnc5)cc4)CC3)c2cc1OC [Example 3, 4-(6,7-Dimethoxy-quinazolin-4-yl)-piperidine-1-carboxylic acid (4-imidazol-1-yl-phenyl)-amide] |
| > 10000 | COc1cc2ncnc(C3CCN(C(=O)Nc4ccc(NC(C)=O)cc4)CC3)c2cc1OC [Example 25, 4-(6,7-Dimethoxy-quinazolin-4-yl)-piperidine-1-carboxylic acid (4-acetylamino-phenyl)-amide] |
| 109 | COc1cc2ncnc(C3CCN(C(=O)Nc4ccc(N(C)C)cc4)CC3)c2cc1OC [Example 26, 4-(6,7-Dimethoxy-quinazolin-4-yl)-piperidine-1-carboxylic acid (4-dimethylamino-phenyl)-amide] |
| 2 | COc1cc2ncnc(C3CCN(C(=O)Cc4ccc(C(C)C)cc4)CC3)c2cc1OC [Example 28, 1-[4-(6,7-Dimethoxy-quinazolin-4-yl)-piperidin-1-yl]-2-(4-isopropyl-phenyl)-ethanone] |
| 50 | CC(C)Oc1ccc(NC(=O)N2CCC(c3ncnc4cc(Cl)ccc34)CC2)cc1 [Example 29, 4-(7-Chloro-quinazolin-4-yl)-piperidine-1-carboxylic acid (4-isopropoxy-phenyl)-amide] |
| 83 | CC(C)c1ccc(NC(=O)N2CCC(c3ncnc4cc(Cl)ccc34)CC2)cc1 [Example 30, 4-(7-Chloro-quinazolin-4-yl)-piperidine-1-carboxylic acid (4-isopropyl-phenyl)-amide] |
| 55 | COc1ccc2c(C3CCN(C(=O)Nc4ccc(OC(C)C)cc4)CC3)ncnc2c1 [Example 31, 4-(7-Methoxy-quinazolin-4-yl)-piperidine-1-carboxylic acid (4-isopropoxy-phenyl)-amide] |
| 35 | COc1ccc2c(C3CCN(C(=O)Nc4ccc(C(C)C)cc4)CC3)ncnc2c1 [Example 32, 4-(7-Methoxy-quinazolin-4-yl)-piperidine-1-carboxylic acid (4-isopropyl-phenyl)-amide] |
| 11 | CC(C)Oc1ccc(NC(=O)N2CCC(c3ncnc4cc(OCCCN5CCCCC5)ccc34)CC2)cc1 [Example 33, 4-(7-(3-Piperidin-1-yl-propoxy)-quinazolin-4-yl)-piperidine-1-carboxylic acid (4-isopropoxy-phenyl)-amide] |
| 79 | CC(C)Oc1ccc(NC(=O)N2CCC(c3ncnc4cc(OCCN5CCCCC5)ccc34)CC2)cc1 [Example 34, 4-(7-(2-Piperindin-1-yl-ethoxy)-quinazolin-4-yl)-piperidine-1-carboxylic acid (4-isopropoxy-phenyl)-amide] |
| 60 | CCN(CC)CCOc1ccc2c(C3CCN(C(=O)Nc4ccc(OC(C)C)cc4)CC3)ncnc2c1 [Example 35, 4-[7-(2-Diethylamino-ethoxy)-quinazolin-4-yl)-piperidine-1-carboxylic acid (4-isopropoxy-phenyl)-amide] |
| 18 | CCN(CC)CCCOc1ccc2c(C3CCN(C(=O)Nc4ccc(OC(C)C)cc4)CC3)ncnc2c1 [Example 36, 4-[7-(3-Diethylamino-propoxy)-quinazolin-4-yl)-piperidine-1-carboxylic acid (4-isopropoxy-phenyl)-amide] |
| 51 | CC(C)Oc1ccc(NC(=O)N2CCC(c3ncnc4cc(OCCN5CCOCC5)ccc34)CC2)cc1 [Example 37] |
| 15 | CC(C)Oc1ccc(NC(=O)N2CCC(c3ncnc4cc(OCCCN5CCOCC5)ccc34)CC2)cc1 [Example 38] |
| 8 | CC(C)Oc1ccc(NC(=O)N2CCC(c3ncnc4cc(OCCCN5CCN(C)CC5)ccc34)CC2)cc1 [Example 39] |
| 1500 | COCCOc1ccc(NC(=O)N2CCC(c3ncnc4cc(OC)c(OC)cc34)CC2)cc1 [Example 40, 4-(6,7-Dimethoxy-quinazolin-4-yl)-piperidine-1-carboxylic acid [4-(2-methoxy-ethoxy)-phenyl]-amide] |
